Test results taken from patent publication US20120129811A1, “TRICYCLIC INHIBITORS OF PRO-MATRIX METALLOPROTEINASE ACTIVATION” (priority 2010, published 2012).
Structures can show the parent of a compound that is named as a salt.

What was measured:
[1] = target: T1, proMMP9(20-445;ΔFnII) (SEQ ID NO:6) (Homo sapiens, UniProt P14780, DEL216-390); assay: ThermoFluor binding assay with proMMP9(20-445;ΔFnII)
T1 construct: start methionine (N); made in house; host or cells: E. coli BL21(DE3) RIL
T1 sequence (P14780 with tags, fused parts or gaps DEL216-390): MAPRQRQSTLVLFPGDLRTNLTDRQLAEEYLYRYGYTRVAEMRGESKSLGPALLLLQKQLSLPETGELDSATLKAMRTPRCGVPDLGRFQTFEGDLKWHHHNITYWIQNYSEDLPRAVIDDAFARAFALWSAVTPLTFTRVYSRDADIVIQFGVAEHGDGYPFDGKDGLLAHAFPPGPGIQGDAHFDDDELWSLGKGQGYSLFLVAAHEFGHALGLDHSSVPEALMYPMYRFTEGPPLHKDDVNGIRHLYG
In short: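 Protein thermal stability was measured with 2.8 μM proMMP9(20-445;ΔFnII) and 50 μM 1,8-ANS in 50 mM HEPES pH 7.0, 100 mM NaCl, 0.001% Tween-20, 2.5 mM MgCl2, 300 μM CaCl2, across serial compound dilutions. Samples were heated 40–90° C at 1° C/min with fluorescence read at 500 nm. Tm was fitted, and binding was derived from thermodynamic parameters obtained by DSC and ThermoFluor.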

[2] = target: T2, proMMP9(67-444;ΔFnII) (SEQ ID NO:5) (Homo sapiens, UniProt P14780, DEL216-390); assay: ThermoFluor binding assay with proMMP9(67-444;ΔFnII)
T2 construct: start methionine (N); made in house; host or cells: E. coli BL21(DE3) RIL
T2 sequence (P14780 with tags, fused parts or gaps DEL216-390): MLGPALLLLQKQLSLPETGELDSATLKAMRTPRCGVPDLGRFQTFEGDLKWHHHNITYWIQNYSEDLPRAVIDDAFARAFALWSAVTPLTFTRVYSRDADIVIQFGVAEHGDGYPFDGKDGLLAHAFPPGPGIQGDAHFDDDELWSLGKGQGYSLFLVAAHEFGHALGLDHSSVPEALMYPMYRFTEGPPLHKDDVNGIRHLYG
In short: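 Thermal shift of 3.5 μM proMMP9(67-444;ΔFnII), desalted beforehand, with 50 μM 1,8-ANS in 50 mM HEPES pH 7.0, 100 mM NaCl, 2.5 mM MgCl2, 300 μM CaCl2, 0.001% Tween-20. Heated 40–90 °C at 1 °C/min, fluorescence read at 500 nm; binding fitted from Tm shifts using DSC- and ThermoFluor-derived unfolding parameters.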

[3] = target: T3, full-length proMMP9(1-707) activation by catalytic MMP3 (Homo sapiens, UniProt P14780, R574P); assay: proMMP9/MMP3 P126 Activation Assay; assay type: biochemical
T3 construct: made in house; host or cells: proMMP9: HEK293 (secreted); MMP3: E. coli
Experimental: proMMP9/MMP3 P126 Activation Assay
The reaction volume was 50 μL. […] Reactivity of residual MMP3 towards P-126 substrate was minimal under these conditions.

T3 sequence (P14780 20-707 R574P): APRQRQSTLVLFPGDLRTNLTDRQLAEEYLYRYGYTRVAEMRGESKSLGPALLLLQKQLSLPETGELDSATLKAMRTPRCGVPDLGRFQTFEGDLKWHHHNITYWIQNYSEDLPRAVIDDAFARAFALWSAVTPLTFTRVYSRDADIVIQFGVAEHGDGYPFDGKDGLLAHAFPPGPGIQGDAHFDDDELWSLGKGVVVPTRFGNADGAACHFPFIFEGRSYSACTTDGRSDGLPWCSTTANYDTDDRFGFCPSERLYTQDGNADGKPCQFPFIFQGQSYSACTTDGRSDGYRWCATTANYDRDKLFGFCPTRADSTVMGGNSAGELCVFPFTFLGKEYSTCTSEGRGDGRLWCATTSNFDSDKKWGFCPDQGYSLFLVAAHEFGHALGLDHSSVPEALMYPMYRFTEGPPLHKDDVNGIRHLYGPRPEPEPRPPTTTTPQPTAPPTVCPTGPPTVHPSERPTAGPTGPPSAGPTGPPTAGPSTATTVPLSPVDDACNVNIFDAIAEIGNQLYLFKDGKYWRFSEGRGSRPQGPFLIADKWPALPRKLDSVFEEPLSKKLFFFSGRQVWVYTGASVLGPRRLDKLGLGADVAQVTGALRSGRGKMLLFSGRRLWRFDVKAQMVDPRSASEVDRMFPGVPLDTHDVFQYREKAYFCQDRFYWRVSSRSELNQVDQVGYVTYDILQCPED

Row | Structure (SMILES) | Kd [1] [nM] | Kd [2] [nM] | IC50 [3] [nM]
1 | COc1ccc(F)cc1Nc1nc2c(ccc3cnccc32)s1 [Example 99, (5-Fluoro-2-methoxy-phenyl)-thiazolo[4,5-f]isoquinolin-2-yl-amine.TFA] | 20000 | 3200 | 870
2 | CC(C)Oc1ccc(S(N)(=O)=O)cc1Nc1nc2c(ccc3cnccc32)s1 [Example 105, 4-Isopropoxy-3-(thiazolo[4,5-f]isoquinolin-2-ylamino)-benzenesulfonamide.TFA] | 65000 | 800 | 850
3 | CCn1cc2c(ccc3sc(Nc4cc(S(C)(=O)=O)ccc4OC)nc32)n1 [Example 107, (7-Ethyl-7H-3-thia-1,6,7-triaza-as-indacen-2-yl)-(5-methanesulfonyl-2-methoxy-phenyl)-amine.TFA] | 6800 | 1500 | 580
4 | COc1ccc(S(C)(=O)=O)cc1Nc1nc2c(ccc3c2cnn3CC(C)C)s1 [Example 108, (6-Isobutyl-6H-3-thia-1,6,7-triaza-as-indacen-2-yl)-(5-methanesulfonyl-2-methoxy-phenyl)-amine.TFA] | > 95000 | 1400 | 650
5 | COc1ccc(S(C)(=O)=O)cc1Nc1nc2c(ccc3c2cnn3CCC(C)C)s1 [Example 109, (5-Methanesulfonyl-2-methoxy-phenyl)-[6-(3-methyl-butyl)-6H-3-thia-1,6,7-triaza-as-indacen-2-yl]-amine.TFA] | > 95000 | 2300 | ~2000
6 | COc1ccc(S(C)(=O)=O)cc1Nc1nc2c(ccc3[nH]ncc32)s1 [Example 110, (5-Methanesulfonyl-2-methoxy-phenyl)-(6H-3-thia-1,6,7-triaza-as-indacen-2-yl)-amine.TFA] | > 95000 | 340 | 260
7 | COc1ccc(C#N)cc1Nc1nc2c(ccc3c2cnn3C)s1 [Example 112, 4-Methoxy-3-(6-methyl-6H-3-thia-1,6,7-triaza-as-indacen-2-ylamino)-benzonitrile.TFA] | > 95000 | 7000 | 160
8 | COc1ccc(S(N)(=O)=O)cc1Nc1nc2c(ccc3nc(C)n(C)c32)s1 [Example 123, 3-(7,8-Dimethyl-8H-imidazo[4′,5′:3,4]-benzo[2,1-d]thiazol-2-ylamino)-4-methoxy-benzenesulfonamide.TFA] | 5300 | 4700 | 810
9 | COc1ccccc1Nc1nc2c(ccc3nc(C)n(C)c32)s1 [Example 124, (7,8-Dimethyl-8H-imidazo[4′,5′:3,4]benzo[2,1-d]thiazol-2-yl)-(2-methoxy-phenyl)-amine.TFA] | 5700 | 2800 | 470
10 | Cc1nc2ccc3sc(Nc4cc(S(N)(=O)=O)ccc4OC(F)(F)F)nc3c2n1C [Example 126, 3-(7,8-Dimethyl-8H-imidazo[4′,5′:3,4]-benzo[2,1-d]thiazol-2-ylamino)-4-trifluoromethoxy-benzenesulfonamide.TFA] | > 95000 | 2200 | 460
11 | COc1ccc(S(N)(=O)=O)cc1Nc1nc2c(ccc3ncn(C)c32)s1 [Example 130, 4-Methoxy-3-(8-methyl-8H-imidazo[4′,5′:3,4]benzo[2,1-d]thiazol-2-ylamino)-benzenesulfonamide.TFA] | > 95000 | 1200 | 830

Now those with a lower Kd [1], led by results:

Row | Kd [1] [nM] | Kd [2] [nM] | IC50 [3] [nM] | Structure (SMILES)
12 | 4900 | 1500 | 680 | Cn1cnc2ccc3sc(Nc4cc(S(N)(=O)=O)ccc4OC(F)(F)F)nc3c21 [Example 128, 3-(8-Methyl-8H-imidazo[4′,5′:3,4]benzo[2,1-d]thiazol-2-ylamino)-4-trifluoromethoxy-benzenesulfonamide.TFA]
13 | 4300 | 980 | 270 | COc1ccc(F)cc1Nc1nc2c(ccc3ncn(C)c32)s1 [Example 127, (5-Fluoro-2-methoxy-phenyl)-(8-methyl-8H-imidazo[4′,5′:3,4]benzo[2,1-d]thiazol 2-yl)-amine.TFA]
14 | 4000 | 860 | 310 | CCn1c(C)nc2ccc3sc(Nc4cc(F)ccc4OC)nc3c21 [Example 121, (8-Ethyl-7-methyl-8H-imidazo[4′,5′:3,4]benzo[2,1-d]thiazol-2-yl)-(5-fluoro-2-methoxy-phenyl)-amine.TFA]
15 | 3400 | 2600 | 480 | CCn1c(C)nc2ccc3sc(Nc4ccccc4OC)nc3c21 [Example 120, (8-Ethyl-7-methyl-8H-imidazo[4′,5′:3,4]benzo[2,1-d]thiazol-2-yl)-(2-methoxy-phenyl)-amine.TFA]
16 | 3100 | 1700 | 370 | CCCn1ncc2c3nc(Nc4cc(S(C)(=O)=O)ccc4OC)sc3ccc21 [Example 111, (5-Methanesulfonyl-2-methoxy-phenyl)-(6-propyl-6H-3-thia-1,6,7-triaza-as-indacen-2-yl)-amine.TFA]
17 | 3100 | 600 | 260 | COc1ccc(F)cc1Nc1nc2c(ccc3nc(C)n(C)c32)s1 [Example 125, (7,8-Dimethyl-8H-imidazo[4′,5′:3,4]benzo[2,1-d]thiazol-2-yl)-(5-fluoro-2-methoxy-phenyl)-amine.TFA]
18 | 1200 | 4600 | ~2200 | NC(=O)c1ccc(OC(F)(F)F)c(Nc2nc3c(ccc4cnccc43)s2)c1 [Example 114, 3-(Thiazolo[4,5-f]isoquinolin-2-ylamino)-4-trifluoromethoxy-benzamide.TFA]
19 | 1200 | 340 | 650 | CCn1c(C)nc2ccc3sc(Nc4cc(S(N)(=O)=O)ccc4OC(F)(F)F)nc3c21 [Example 122, 3-(8-Ethyl-7-methyl-8H-imidazo[4′,5′:3,4]benzo[2,1-d]thiazol-2-ylamino)-4-trifluoromethoxy-benzenesulfonamide.TFA]
20 | 1200 | 520 | 420 | CCn1c(C)nc2ccc3sc(Nc4cc(S(N)(=O)=O)ccc4OC)nc3c21 [Example 129, 3-(8-Ethyl-7-methyl-8H-imidazo[4′,5′:3,4]benzo[2,1-d]thiazol-2-ylamino)-4-methoxy-benzenesulfonamide.TFA]
21 | 910 | 1200 | 500 | Cc1nc2ccc3sc(Nc4cc(S(N)(=O)=O)ccc4OC(C)C)nc3c2n1C [Example 119, 3-(7,8-Dimethyl-8H-imidazo[4′,5′:3,4]-benzo[2,1-d]thiazol-2-ylamino)-4-isopropoxy-benzenesulfonamide.TFA]
22 | 790 | 430 | 760 | Cn1ncc2c3nc(Nc4cc(S(N)(=O)=O)ccc4OC(F)(F)F)sc3ccc21 [Example 101, 3-(6-Methyl-6H-3-thia-1,6,7-triaza-as-indacen-2-ylamino)-4-trifluoromethoxy-benzenesulfonamide.TFA]
23 | 750 | 370 | 380 | COc1ccc(S(N)(=O)=O)cc1Nc1nc2c(ccc3c2cnn3C)s1 [Example 103, 4-Methoxy-3-(6-methyl-6H-3-thia-1,6,7-triaza-as-indacen-2-ylamino)-benzenesulfonamide.TFA]
24 | 600 | 530 | 190 | CCn1ncc2c3nc(Nc4cc(S(C)(=O)=O)ccc4OC)sc3ccc21 [Example 106, (6-Ethyl-6H-3-thia-1,6,7-triaza-as-indacen-2-yl)-(5-methanesulfonyl-2-methoxy-phenyl)-amine.TFA]
25 | 290 | 860 | 510 | CCn1c(C)nc2ccc3sc(Nc4cc(S(N)(=O)=O)ccc4OC(C)C)nc3c21 [Example 118, 3-(8-Ethyl-7-methyl-8H-imidazo[4′,5′:3,4]benzo[2,1-d]thiazol-2-ylamino)-4-isopropoxy-benzenesulfonamide.TFA]
26 | 250 | 680 | 390 | CC(C)Oc1ccc(S(N)(=O)=O)cc1Nc1nc2c(ccc3c2cnn3C)s1 [Example 102, 4-Isopropoxy-3-(6-methyl-6H-3-thia-1,6,7-triaza-as-indacen-2-ylamino)-benzenesulfonamide.TFA]
27 | 140 | 1500 | 250 | Cn1ncc2c3nc(Nc4cc(C(N)=O)ccc4OC(F)(F)F)sc3ccc21 [Example 113, 3-(6-Methyl-6H-3-thia-1,6,7-triaza-as-indacen-2-ylamino)-4-trifluoromethoxy-benzamide.TFA]
